For twelve compounds, IC50 results are on record in patent US12338256B2, “Aza-tetracyclic oxazepine compounds and uses thereof” (Genentech, Inc., priority 2022, dated 2025).

One test has as its target KRAS G12D (Homo sapiens, UniProt P01116, G12D). Description: KRAS G12D LoEnz Biochemical Assay, BODIPY-GDP Exchange TR-FRET (Example 500). The settings on record: read-out: KRas (G12D) GDP HTRF IC50. The method, then:
Example 500: KRAS G12D LoEnz Biochemical Assay, BODIPY-GDP Exchange TR-FRET. Biochemical compound potencies are assessed by evaluating inhibition of SOS1-mediated nucleotide exchange in KRAS G12D. In this assay, the SOS1-promoted exchange of fluorescently-labeled GDP (BOPIDY-GDP) is monitored by time-resolved fluorescence resonance energy transfer (TR-FRET). Compounds solubilized in DMSO are dispensed as concentration series into 384-well white assay plates. A preformed complex of biotin-tagged recombinant human KRAS (0.06 nM mutant G12D) and 0.06 nM terbium-labeled streptavidin (CisBIO) prepared in 10 uL/well assay buffer (20 mM HEPES, pH 7.5, 50 mM NaCl, 10 mM MgCl2, 0.01% Tween-20 and 1 mM dithiothreitol) is added and allowed to incubate for 10-minutes at room temperature. The reaction is initiated with the addition of 5 uL 300 nM recombinant human SOS1 and 300 nM BODIPY-GDP in assay buffer. After a 120-minute incubation, the fluorescence is measured with excitation at 337 nm and emission at 490 and 520 nm. The TR-FRET ratio is determined as the fluorescence at 520 nm divided by the fluorescence at 490 nm multiplied by 10,000. The results are normalized to percent inhibition based on control samples: DMSO (0% inhibition) and control compound at a concentration that inhibits completely (100% inhibition). The normalized TR-FRET results are plotted against compound concentration, and the data are fit to a 4-parameter Hill equation to determine the IC50 values.
(In general: In TR-FRET formats the signal depends on donor and acceptor labels being close together.)

Test [1] relates to AsPC-1 (homozygous mutant KRAS G12D human pancreatic cell line). Nature of the test: KRAS 3D-Cell Proliferation Assay, AsPC-1 (Example 503). It is filed as cell-based. The settings on record: Homo sapiens, ASPC1, 168 h, AsPC-1 3D culture, 7 days, CellTiter-Glo 3D; read-out: Prolif AsPC-1 3D ATP IC50. An outline of the steps: (§1)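 3D culture, ultra-low attachment wells; RPMI-1640/10% FBS/2 mM L-glutamine. Overnight settle, then compound series, 0.3% DMSO final, 7 d, 37° C, 5% CO2. Readout: CellTiter-Glo 3D luminescence. % inhibition vs DMSO (0%) and 1 μM staurosporine (100%); IC50 via 4-parameter Hill.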
(In general: Cellular ATP, detected with luciferase, serves as a proxy for viable cell number.)

In test [2] the test system is HPAC (homozygous mutant KRAS G12D human pancreatic cell line). Nature of the test: KRAS 3D-Cell Proliferation Assay, HPAC (Example 503). The test is classed as cell-based. The settings on record: Homo sapiens, HPAC, 168 h, HPAC 3D culture, 7 days, CellTiter-Glo 3D; read-out: Prolif HPAC 3D ATP IC50. An outline of the steps:
as §1

The test system of test [3] is PC-9 (KRAS wild type human lung adenocarcinoma cell line). Nature of the test: KRAS 3D-Cell Proliferation Assay, PC-9 (Example 503). The settings on record: 168 h, PC-9 3D culture, 7 days, CellTiter-Glo 3D, read-out: Prolif PC9 3D ATP IC50. The test is classed as cell-based. An outline of the steps:
as §1

Test [4] concerns H1975 (KRAS wild type human lung adenocarcinoma cell line). Description: KRAS 3D-Cell Proliferation Assay, H1975 (Example 503). The test is classed as cell-based. The settings on record: Homo sapiens, NCI-H1975, 168 h, H1975 3D culture, 7 days, CellTiter-Glo 3D; read-out: Prolif H1975 3D ATP IC50. An outline of the steps: as §1
Where [5] appears, read: SOS1-mediated BODIPY-GDP exchange TR-FRET.

Each structure is given as a SMILES string. Read-outs that look alike come from different tables or passages of the source.

KRAS G12D, sequence (P01116 1-188 isoform P01116-2 G12D): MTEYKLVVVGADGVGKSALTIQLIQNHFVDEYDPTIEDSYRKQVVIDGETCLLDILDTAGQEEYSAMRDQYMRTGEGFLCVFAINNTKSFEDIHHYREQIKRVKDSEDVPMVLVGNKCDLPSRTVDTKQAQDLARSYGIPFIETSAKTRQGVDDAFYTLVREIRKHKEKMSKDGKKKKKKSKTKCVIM

Usually IC50 stands for the point on the concentration scale where inhibition reaches its midpoint. On to `Cc1c(F)c(N)cc(-c2nc3c4c(nc(OC[C@]5(CN6CC7(COC7)C6)CC5(F)F)nc4c2F)N2C[C@H]4CC[C@H](N4)[C@H]2[C@H](C)O3)c1C(F)(F)F` (single isomer, unassigned) [165 b], for which the IC50 on KRAS G12D (BODIPY-GDP exchange) is 0.1 nM.
Take `Cc1cc(N)c(Cl)c(-c2nc3c4c(nc(OC[C@@]56CCCN5C[C@H](F)C6)nc4c2Cl)N2C[C@H]4CC[C@H](N4)[C@H]2[C@H](C)O3)c1C(F)(F)F` (single isomer, unassigned) [240 (atrop. 1)]: on KRAS G12D (setting [5]), the IC50 was determined as 44.9 nM.
With `C=C1CN2CCC[C@@]2(COc2nc3c4c(nc(-c5cc(N)c(F)c(C)c5C(F)(F)F)c(F)c4n2)O[C@@H](C)[C@@H]2[C@@H]4CC[C@H](CN32)N4)C1` [Compound 57, 2-Fluoro-5-((5S,5aS,6S,9R)-1-fluoro-5-methyl-12-(((S)-2-methylenetetrahydro-1H-pyrrolizin-7a(5H)-yl)methoxy)-5a,6,7,8,9,10-hexahydro-5H-4-oxa-3,10a,11,13,14-pentaaza-6,9-methanonaphtho[1,8-ab]heptalen-2-yl)-3-methyl-4-(trifluoromethyl) aniline], the IC50 in test [1] was 0.361 nM; in test [2] it was 2.59 nM; in test [3] it was 3.11 µM; in test [4] it was 0.251 µM.
For `Cc1cc(N)cc(-c2nc3c4c(nc(OC[C@]56CCN5CC(F)(F)C6)nc4c2F)N2C[C@H]4CC[C@H](N4)[C@H]2[C@H](C)O3)c1C(F)(F)F` [Compound 60, 3-((5S,5aS,6S,9R)-12-(((R)-3,3-Difluoro-1-azabicyclo[3.2.0]heptan-5-yl)methoxy)-1-fluoro-5-methyl-5a,6,7,8,9,10-hexahydro-5H-4-oxa-3,10a,11,13,14-pentaaza-6,9-methanonaphtho[1,8-ab]heptalen-2-yl)-5-methyl-4-(trifluoromethyl)aniline] the same measures were 3.48 nM, 2.59 nM, 16.5 µM and 0.72 µM.
`Cc1c(F)c(N)cc(-c2nc3c4c(nc(OC[C@@H]5CC(F)(F)CN5C)nc4c2F)N2C[C@H]4CC[C@H](N4)[C@H]2[C@H](C)O3)c1C(F)(F)F` [Compound 65, 5-((5S,5aS,6S,9R)-12-(((S)-4,4-Difluoro-1-methylpyrrolidin-2-yl)methoxy)-1-fluoro-5-methyl-5a,6,7,8,9,10-hexahydro-5H-4-oxa-3,10a,11,13,14-pentaaza-6,9-methanonaphtho[1,8-ab]heptalen-2-yl)-2-fluoro-3-methyl-4-(trifluoromethyl)aniline]: the IC50 in test [1] came out at 64.3 nM; in test [2] it was 19.6 nM; in test [3] it was 7.53 µM; in test [4] it was 7.96 µM.
In the same order, the values of `Cc1c(F)c(N)cc(-c2nc3c4c(nc(OC[C@H]5CC(F)(F)CN5C)nc4c2F)N2C[C@H]4CC[C@H](N4)[C@H]2[C@H](C)O3)c1C(F)(F)F` [Compound 66, 5-((5S,5aS,6S,9R)-12-(((R)-4,4-difluoro-1-methylpyrrolidin-2-yl)methoxy)-1-fluoro-5-methyl-5a,6,7,8,9,10-hexahydro-5H-4-oxa-3,10a,11,13,14-pentaaza-6,9-methanonaphtho[1,8-ab]heptalen-2-yl)-2-fluoro-3-methyl-4-(trifluoromethyl)aniline] are 41.4 nM, 27.6 nM, 4.78 µM and 7.15 µM.
In the same order, the values of `Cc1c(F)c(N)cc(-c2nc3c4c(nc(OC[C@@]56CCCN5C[C@H](F)C6)nc4c2F)N2C[C@H]4CC[C@H](N4)[C@H]2[C@H](C)O3)c1Cl` [Compound 76, 4-Chloro-2-fluoro-5-((5S,5aS,6S,9R)-1-fluoro-12-(((2R,7aS)-2-fluorotetrahydro-1H-pyrrolizin-7a(5H)-yl)methoxy)-5-methyl-5a,6,7,8,9,10-hexahydro-5H-4-oxa-3,10a,11,13,14-pentaaza-6,9-methanonaphtho[1,8-ab]heptalen-2-yl)-3-methylaniline] are 14.1 nM, 4.62 nM, 5.71 µM and 0.248 µM.
For `C=C1CN2CCC[C@@]2(COc2nc3c4c(nc(-c5cc(O)cc6cccc(CC)c56)c(F)c4n2)O[C@@H](C)[C@@H]2[C@@H]4CC[C@H](CN32)N4)C1` [Compound 80, 5-Ethyl-4-((5S,5aS,6S,9R)-1-fluoro-5-methyl-12-(((S)-2-methylenetetrahydro-1H-pyrrolizin-7a(5H)-yl)methoxy)-5a,6,7,8,9,10-hexahydro-5H-4-oxa-3,10a,11,13,14-pentaaza-6,9-methanonaphtho[1,8-ab]heptalen-2-yl)naphthalen-2-ol] the same measures were 5.08 nM, 2.76 nM, 4.05 µM and 0.924 µM.
Regarding `C#Cc1c(F)ccc2cc(O)cc(-c3nc4c5c(nc(OC[C@@]67CCCN6C[C@H](F)C7)nc5c3F)N3C[C@H]5CC[C@H](N5)[C@H]3CO4)c12` [Compound 81, 5-Ethynyl-6-fluoro-4-((5aS,6S,9R)-1-fluoro-12-(((2R,7aS)-2-fluorotetrahydro-1H-pyrrolizin-7a(5H)-yl)methoxy)-5a,6,7,8,9,10-hexahydro-5H-4-oxa-3,10a,11,13,14-pentaaza-6,9-methanonaphtho[1,8-ab]heptalen-2-yl)naphthalen-2-ol], the 50% inhibitory concentration (IC50) is 14.7 nM in test [1], 12.4 nM in test [2], at least 20 µM in test [3] and 4.78 µM in test [4].
With `C[C@@H]1Oc2nc(-c3nc(N)c(F)cc3C(F)(F)F)c(F)c3nc(OC[C@@]45CCCN4CC4(CC4(F)F)C5)nc(c23)N2C[C@H]3CC[C@H](N3)[C@@H]12` (stereo partly drawn) [Compound 86, 6-((5S,5aS,6S,9R)-12-(((7a′S)-2,2-difluorodihydro-1′H,3′H-spiro[cyclopropane-1,2′-pyrrolizin]-7a′(5′H)-yl)methoxy)-1-fluoro-5-methyl-5a,6,7,8,9,10-hexahydro-5H-4-oxa-3,10a,11,13,14-pentaaza[6,9]methanonaphtho[1,8-ab]heptalen-2-yl)-3-fluoro-5-(trifluoromethyl)pyridin-2-amine], the IC50 in test [1] came to 144 nM; in test [2], 126 nM; in test [3], 8.75 µM; in test [4] it was 5.43 µM.
In the same order, the values of `C[C@@H]1Oc2nc(-c3nc(N)c(F)cc3C(F)(F)F)c(F)c3nc(OC[C@]45CCN4CC(F)(F)C5)nc(c23)N2C[C@H]3CC[C@H](N3)[C@@H]12` [Compound 87, 6-((5S,5aS,6S,9R)-12-(((R)-3,3-Difluoro-1-azabicyclo[3.2.0]heptan-5-yl)methoxy)-1-fluoro-5-methyl-5a,6,7,8,9,10-hexahydro-5H-4-oxa-3,10a,11,13,14-pentaaza-6,9-methanonaphtho[1,8-ab]heptalen-2-yl)-3-fluoro-5-(trifluoromethyl)pyridin-2-amine] are 4030 nM, 1400 nM, at least 20 µM and 20 µM.
`Cc1nc(N)cc(-c2nc3c4c(nc(OCC5(CN6CC7COCC(C6)C7(F)F)CC5)nc4c2F)N2C[C@H]4CC[C@H](N4)[C@H]2[C@H](C)O3)c1C(F)(F)F` [Compound 266, 4-((5S,5aS,6S,9R)-12-((1-((9,9-difluoro-3-oxa-7-azabicyclo[3.3.1]nonan-7-yl)methyl)cyclopropyl)methoxy)-1-fluoro-5-methyl-5a,6,7,8,9,10-hexahydro-5H-4-oxa-3,10a,11,13,14-pentaaza-6,9-methanonaphtho[1,8-ab]heptalene-2-yl)-6-methyl-5-(trifluoromethyl)pyridin-2-amine]: the IC50 on KRAS G12D (setting [5]) came to 3.05 nM.
